pIC50: −log10 of the molar value.
What was measured:
[1] = tested on: IFN induction in virus-stimulated THP1 cells; assay: Human cGAS cell assay, baculovirus-stimulated THP1-Dual cells, Lucia luciferase reporter (THP1(vir) IC50); assay type: cell-based; conditions: for pIC50: Homo sapiens, THP-1, baculovirus-stimulated THP1-Dual cells, 18 h; for Ratio THP(cGAMP) IC50/THP(vir) IC50: selectivity for cGAS inhibition;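 for all read-outs here: IRF-dependent luminescence, 8 concentrations up to 10 µM in 1% DMSO, 0% = unstimulated cells, 100% = DMSO plus virus, counter assay stimulated with cGAMP downstream of cGAS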
Description: THP1-Dual™ cells (InvivoGen #thpd-nfis) expressing IRF dependent Lucia luciferase reporter were used as basis for both assays. For the detection of cellular cGAS activity cells were stimulated by a baculovirus (pFastbac-1, Invitrogen, no coding insert) infection that delivers the cGAS enzyme stimulating double-stranded DNA (measurement of THP1(vir) IC50).
(§1) For the counter assay, cells were stimulated by cGAMP (SigmaAldrich #SML1232) to activate the identical pathway independent and directly downstream of cGAS (measurement of THP1(cAMP) IC50). Pathway activity was monitored by measuring the Lucia luciferase activity induced by either DNA stimulated cGAS enzyme activity (measurement of THP1^(vir) IC50) or by cGAMP directly (measurement of THP1(cAMP) IC50, counter assay).
Typically, 8 concentrations were used with the highest concentration at 10 μM in the final assay volume followed by ˜1:5 dilution steps. DMSO concentration was set to 1% in the final assay volume. The 384 well assay plate contained 21 test compounds (column 1-22), and DMSO in column 23 and 24.
The baculovirus solution was then added 1:200 (may have varied according to virus batch) to the cells (measurement of THP1(vir) IC50).
(§2) 30 μL of the cell/virus-mix were added to each well of the compound plate from column 1-23 via MultiDrop Combi dispenser (5000 cells/well). In column 24, 30 μl/5000 cells/well without virus were added as a low control.
(§3) The plates were then incubated for 18 h at 37° C. in a humidified incubator.
(§4) Following that, 15 μL of QuantiLuc detection reagent (InvivoGen #rep-qlcg5) were added to each well using a MultiDrop Combi. Measurement was done immediately after the addition using an EnVision reader (US-luminescence read-mode).
Data Evaluation and Calculation:
(§5) For data evaluation and calculation, the measurement of the low control was set as 0% control and the measurement of the high control was set as 100% control. The IC50 values were calculated using the standard 4 parameter logistic regression formula. Calculation: [y=(a−d)/(1+(x/c)^b)+d], a=low value, d=high value; x=conc M; c=1C50 M; b=slope

[2] = tested on: IFN induction in dsDNA-stimulated human whole blood; assay: Human whole blood assay, dsDNA transfection, IFNα2a production (hWB IC50); assay type: cell-based;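 note: cGAS pathway activity, IFNα2a in plasma by MSD immunoassay after 22 h at 37 °C, 8 concentrations up to 10 µM in 0.1% DMSO, DMSO controls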
Protocol: For the detection of cellular cGAS activity human whole blood was stimulated by transfection with double stranded DNA. Pathway activity was monitored by measuring the IFNα2α production.
Typically, 8 concentrations were used with the highest concentration at 10 μM in the final assay volume followed by ˜1:5 dilution steps. DMSO concentration was set to 0.1% in the final assay volume. The 96-well assay plate contained 10 test compounds, and DMSO in control wells.
Whole blood was kept at room temperature for a maximum of 3 hours after collection until use in the assay.
160 μl of the whole blood samples was transferred to each well of the 96-well assay plates filled with compound/OptiMEM. All assay plates were prepared as duplicates with blood from different donors. Blood plates were kept at room temperature for 60 minutes and continuous shaking with 450 rpm, covered with the lid, but not sealed.
20 μl OptiMEM and 9.6:1 Fugene was added to all low control wells.
After covering assay plates with aera seals and the lid, blood plates were kept at room temperature for 30 minutes and continuous shaking with 450 rpm, followed by an overnight incubation of 22 h at 37° C. in the incubator, without shaking.
U-Plex MSD GOLD 96-well Small Spot Strepavidin SECTOR Plates (Meso Scale Diagnostics #L45SA-5) were coated with 25 μl diluted capture antibody. Coated plates were incubated for 60 min at room temperature under continuous shaking at 700 rpm. MSD IFNα-2a plates were washed three times with 150 μl wash buffer (1×HBSS, 0.05% Tween).
After blocking the plates with 100 μl block solution/well (1×HBSS with 0.2% Tween, 2% BSA) for 60 min at room temperature and continuous shaking at 700 rpm, plates were emptied as dry as possible by dumping just before continuing with the human plasma.
Whole Blood assay plates were centrifuged at 1600 rpm for 10 minutes. 25 μl of supernatant was transferred with a pipetting robot from each whole blood plate to the corresponding IFNα-2a plate.
Plates were sealed with microplate seals and kept at room temperature again under continuous shaking at 700 rpm for two hours.
Next MSD IFNα-2a plates were washed three times with 150 μl wash buffer (1×HBSS, 0.05% Tween), before adding 25 μl MSD SULFO-TAG IFNα-2a Antibody solution (1:100 diluted in Diluent 3 (Meso Scale Diagnostics #R50AP-2) to each well of the plates.
Afterwards plates were sealed with microplate seals and kept at room temperature again under continuous shaking at 700 rpm for two hours. Finally, MSD IFNα-2α plates were washed three times with 150 μl wash buffer (1×HBSS, 0.05% Tween). 150 μl 2× Read buffer was added to each well and plates were immediately measured with the MSD Sector S600 Reader using the vendor barcode.
For data evaluation and calculation, % control calculation of each well was based on the mean of high (DNA stimulated control) and mean of low (unstimulated control) controls by using the following formula: [counts(sample)−counts(low))/(counts(high)−counts(low))]*100
The IC50 values were calculated using the standard 4 parameter logistic regression formula. Calculation: [y=(a−d)/(1+(x/c)^b)+d], a=low value, d=high value; x=conc M; c=1C50 M; b=slope

Human cGAS = Human cGAS (Homo sapiens (Human), UniProt Q8N884); assay: Human cGAS enzyme assay (hcGAS IC50, in vitro), cGAMP formation by RapidFire MS; assay type: biochemical; conditions: 45 bp dsDNA, GTP/ATP;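 note: compounds preincubated 60 min, then GTP and ATP (30 µM each) added for 90 min at room temperature, cGAMP read relative to cyclic-di-GMP internal standard, no-enzyme/DNA wells as 0%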
[3] = tested on: IFN induction in cGAMP-stimulated THP1 cells; assay: cGAMP stimulated counter cell assay, THP1-Dual cells, Lucia luciferase reporter (THP1(cGAMP) IC50); assay type: cell-based; conditions: Homo sapiens, THP-1, THP1-Dual cells stimulated with 10 μM cGAMP;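 note: IRF-driven Lucia luciferase luminescence after 18 h at 37° C, compound series topping at 10 µM with 1% DMSO, unstimulated wells as 0% and DMSO wells as 100%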
Description: 6.2 Method: Human cGAS Cell Assay and cGAMP Stimulated Counter Cell Assay (THP1(vir) IC50 and THP1(cGAMP) IC50)
THP1-Dual™ cells (InvivoGen #thpd-nfis) expressing IRF dependent Lucia luciferase reporter were used as basis for both assays.
as §1
Compounds were delivered in 10 mM DMSO solution, serially diluted and transferred to the 384 well assay plate (Greiner #781201) using an Echo acoustic dispenser. Typically, 8 concentrations were used with the highest concentration at 10 μM in the final assay volume followed by ˜1:5 dilution steps. DMSO concentration was set to 1% in the final assay volume. The 384 well assay plate contained 21 test compounds (column 1-22), and DMSO in column 23 and 24.
as §2, §3, §4
Data Evaluation and Calculation:
as §5

Human cGAS, sequence (Q8N884 whole entry): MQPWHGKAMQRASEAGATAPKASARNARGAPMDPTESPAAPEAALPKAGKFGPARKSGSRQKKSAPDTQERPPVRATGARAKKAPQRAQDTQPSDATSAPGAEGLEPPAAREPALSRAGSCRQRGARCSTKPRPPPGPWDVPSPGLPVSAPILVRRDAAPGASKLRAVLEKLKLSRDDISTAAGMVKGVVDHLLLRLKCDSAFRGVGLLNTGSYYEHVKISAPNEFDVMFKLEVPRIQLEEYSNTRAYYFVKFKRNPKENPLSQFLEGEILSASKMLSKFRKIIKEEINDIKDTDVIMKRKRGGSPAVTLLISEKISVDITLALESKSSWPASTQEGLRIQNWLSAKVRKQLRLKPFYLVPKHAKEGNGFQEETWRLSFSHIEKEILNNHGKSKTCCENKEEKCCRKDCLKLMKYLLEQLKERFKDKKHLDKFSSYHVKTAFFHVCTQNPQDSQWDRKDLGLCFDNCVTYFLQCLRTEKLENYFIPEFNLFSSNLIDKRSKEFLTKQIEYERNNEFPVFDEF

Compound | pIC50 [1] | Ratio THP(cGAMP) IC50/THP(vir) IC50 [1] | pIC50 [2] | pIC50 (Human cGAS) | pIC50 [3]
C#Cc1cnc(O[C@H]2C[C@@H](C(=O)O)N(c3nc(C(F)(F)F)nc4c3oc3ccccc34)C2)c([C@@]2(F)CC(C)(C)S(=O)(=O)C[C@@H]2C)c1 [Example 1.08] | 8.40 | 3275 | 7.80 | 8.40 | 4.86
O=C(O)[C@@H]1C[C@H](Oc2ncc(Cl)cc2[C@@]2(F)CCN3C(=O)OC[C@H]3C2)CN1c1nc(C(F)F)nc2c1oc1ccccc12 [Example 2.13] | 6.09 | >20 | 6.24 | 8.15 | < 4.78
C#Cc1cnc(O[C@H]2C[C@@H](C(=O)O)N(c3nc(C(F)(F)F)nc4c3oc3ccccc34)C2)c(C2(F)CCS(=O)(=O)CC2)c1 [Example 2.07] | 6.16 | >24 | 7.01 | 8.70 | < 4.78
CC1(C)C[C@](F)(c2cc(Cl)cnc2O[C@H]2C[C@@H](C(=O)O)N(c3nc(C(F)F)nc4c3oc3ccccc34)C2)CCS1(=O)=O [Example 2.08] | 7.60 | 479 | 7.55 | 8.30 | 4.92
C#Cc1cnc(O[C@H]2C[C@@H](C(=O)O)N(c3nc(C(F)(F)F)nc4c3oc3ccccc34)C2)c([C@]2(F)CCOC[C@@H]2C)c1 [Example 1.04] | 6.42 | 66 | 6.19 | 8.40 | 4.60
CC(=O)N1CC[C@](F)(c2cc(Cl)cnc2O[C@H]2C[C@@H](C(=O)O)N(c3nc(C(F)F)nc4c3oc3ccccc34)C2)[C@@H](C)C1 [Example 1.22] | 7.07 | 189 | 6.94 | 8.40 | 4.79
CC#Cc1cnc(O[C@H]2C[C@@H](C(=O)O)N(c3nc(C(F)(F)F)nc4c3oc3ccccc34)C2)c([C@@]2(F)CCN(C3COC3)C[C@@H]2C)c1 [Example 2.17] | 6.42 | 10 | 6.54 | 7.02 | 5.41
C[C@H]1COCC[C@]1(F)c1cc(-c2cnn(C(F)F)c2)cnc1O[C@H]1C[C@@H](C(=O)O)N(c2nc(C(F)F)nc3c2oc2ccccc23)C1 [Example 6.01, (2S,4S)-4-({5-[1-(Difluoromethyl)-1H-pyrazol-4-yl]-3-[(3S,4R)-4-fluoro-3-methyloxan-4-yl]pyridin-2-yl}oxy)-1-[4-(difluoromethyl)-8-oxa-3,5-diazatricyclo[7.4.0.0^2,7]trideca-1(9),2(7),3,5,10,12-hexaen-6-yl]pyrrolidine-2-carboxylic acid] | 7.46 | >289 | 7.09 | 8.30 | < 5.00
CC1(C)C[C@](F)(c2cc(Cl)cnc2O[C@H]2C[C@@H](C(=O)O)N(c3nc(C(F)(F)F)nc4c3oc3ccccc34)C2)CCS1(=O)=O [Example 2.09] | 6.77 | 33 | 7.05 | 7.96 | 5.26
C#Cc1cnc(O[C@H]2C[C@@H](C(=O)O)N(c3nc(C(F)F)nc4c3oc3ccccc34)C2)c([C@]2(F)CC(C)(C)S(=O)(=O)C[C@@H]2C)c1 [Example 1.10] | 7.09 | 28 | 7.15 | 7.40 | 5.65
C[C@H]1CN(C(N)=O)CC[C@]1(F)c1cc(Cl)cnc1O[C@H]1C[C@@H](C(=O)O)N(c2nc(C(F)F)nc3c2oc2ccccc23)C1 [Example 1.24] | 6.61 | 88 | 6.32 | 8.15 | 4.66
COc1cncc(-c2cnc(O[C@H]3C[C@@H](C(=O)O)N(c4nc(C(F)F)nc5c4oc4ccccc45)C3)c([C@@]3(F)CCOC[C@@H]3C)c2)c1 [Example 6.02] | 8.30 | >3212 | 7.35 | 8.22 | < 4.78
N#CN1CCC(F)(c2cc(Cl)cnc2O[C@H]2C[C@@H](C(=O)O)N(c3nc(C(F)F)nc4c3oc3ccccc34)C2)CC1 [Example 2.05] | 6.14 | 23 | 6.02 | 8.22 | 4.78
C[C@H]1CS(=O)(=O)CC[C@]1(F)c1cc(Cl)cnc1O[C@H]1C[C@@H](C(=O)O)N(c2nc(C(F)F)nc3c2oc2ccccc23)C1 [Example 1.13] | 8.22 |  | 8.22 | 8.70 | 4.65
O=C(O)[C@@H]1C[C@H](Oc2ncc(Cl)cc2[C@]2(F)CCOC[C@@H]2C(F)(F)F)CN1c1nc(C(F)F)nc2c1oc1ccccc12 [Example 1.25] | 6.15 | 19 | 6.30 | 8.00 | 4.87
C#Cc1cnc(O[C@H]2C[C@@H](C(=O)O)N(c3nc(C(F)F)nc4c3oc3ccccc34)C2)c([C@]2(F)CCOC[C@@H]2C)c1 [Example 1.03] | 6.55 | >59 | 6.86 | 8.70 | < 4.78

Compound | pIC50 [1] | Ratio THP(cGAMP) IC50/THP(vir) IC50 [1] | pIC50 [2] | pIC50 (Human cGAS) | pIC50 [3]
C[C@H]1COCC[C@]1(F)c1cc(Br)cnc1O[C@H]1C[C@@H](C(=O)O)N(c2nc(C(F)F)nc3c2oc2ccccc23)C1 [Example 2.16] | 6.90 | 133 | 6.49 | 8.40 | < 4.78
O=C(O)[C@@H]1C[C@H](Oc2ncc(Cl)cc2[C@]2(F)CCS(=O)(=O)C3(CCC3)C2)CN1c1nc(C(F)F)nc2c1oc1ccccc12 [Example 1.21] | 6.90 | 74 | 7.12 | 8.30 | 5.03
C[C@H]1CS(=O)(=O)C(C)(C)C[C@]1(F)c1cc(Cl)cnc1O[C@H]1C[C@@H](C(=O)O)N(c2nc(C(F)F)nc3c2oc2ccccc23)C1 [Example 1.16] | 8.10 | 1055 | 8.22 | 8.30 | 5.08
C#Cc1cnc(O[C@H]2C[C@@H](C(=O)O)N(c3nc(C(F)(F)F)nc4c3oc3ccccc34)C2)c([C@]2(F)CCS(=O)(=O)C[C@H]2C)c1 [Example 2.15] | 6.68 | 50 | 6.54 | 8.22 | 4.99
O=C(O)[C@@H]1C[C@H](Oc2ncc(Cl)cc2[C@@]2(F)CCS(=O)(=O)C3(CC3)C2)CN1c1nc(C(F)F)nc2c1oc1ccccc12 [Example 1.18] | 6.27 | 20 | 6.54 | 8.05 | 4.96
COC(=O)[C@@H]1C[C@H](Oc2ncc(Cl)cc2[C@@]2(OC)CC(C)(C)S(=O)(=O)C[C@@H]2C)CN1c1nc(C(F)F)nc2c1oc1ccccc12 [Example P03] | 6.69 |  | 5.70 | 5.14 | 4.69
C[C@H]1CN(C2COC2)CC[C@]1(F)c1cc(Cl)cnc1O[C@H]1C[C@@H](C(=O)O)N(c2nc(C(F)F)nc3c2oc2ccccc23)C1 [Example 1.23] | 6.73 | 45 | 6.78 | 7.82 | 5.08
CNc1cccc(-c2cnc(O[C@H]3C[C@@H](C(=O)O)N(c4nc(C(F)F)nc5c4oc4ccccc45)C3)c([C@@]3(F)CCOC[C@@H]3C)c2)c1 [Example 6.03] | 7.46 | 276 | 7.42 | 8.00 | 5.02
C#Cc1cnc(O[C@H]2C[C@@H](C(=O)O)N(c3nc(C(F)F)nc4c3oc3ccccc34)C2)c([C@]2(F)CCS(=O)(=O)C(C)(C)C2)c1 [Example 1.15] | 7.96 | 963 | 7.66 | 8.22 | 4.99
CNc1cc(-c2cnc(O[C@H]3C[C@@H](C(=O)O)N(c4nc(C(F)F)nc5c4oc4ccccc45)C3)c([C@@]3(F)CCOC[C@@H]3C)c2)ccn1 [Example 3.02] | 7.64 | 201 | 7.28 | 8.70 | 5.33
O=C(O)[C@@H]1C[C@H](Oc2ncc(Cl)cc2[C@]2(F)CCS(=O)(=O)C3(COC3)C2)CN1c1nc(C(F)F)nc2c1oc1ccccc12 [Example 1.20] | 6.86 | 111 | 7.26 | 8.52 | 4.81
C[C@H]1CS(=O)(=O)C(C)(C)C[C@@]1(F)c1cc(Cl)cnc1O[C@H]1C[C@@H](C(=O)O)N(c2nc(C(F)(F)F)nc3c2oc2ccccc23)C1 [Example 1.07] | 6.67 | 17 | 6.67 | 7.16 | 5.43
C#Cc1cnc(O[C@H]2C[C@@H](C(=O)O)N(c3nc(C(F)F)nc4c3oc3ccccc34)C2)c([C@@]2(F)CC(C)(C)S(=O)(=O)C[C@@H]2C)c1 [Example 1.09] | > 8.30 | >2935 | 8.40 | 8.40 | 4.80
C#Cc1cnc(O[C@H]2C[C@@H](C(=O)O)N(c3nc(C(F)F)nc4c3oc3ccccc34)C2)c(C2(F)CCS(=O)(=O)CC2)c1 [Example 2.03] | 6.95 | >148 | 7.40 | 8.70 | < 4.78
CC(=O)N1CC[C@](F)(c2cc(-c3cccc(N(C)C)c3)cnc2O[C@H]2C[C@@H](C(=O)O)N(c3nc(C(F)F)nc4c3oc3ccccc34)C2)[C@@H](C)C1 [Example 3.04] | 7.80 | 650 | 7.34 | 7.54 | 4.98
